Laboratory results: patent EP1285918A1, “C7 Ester substituted taxanes as antitumor agents” (Florida State University Research Foundation, Inc., priority 2001, dated 2003)
Read-outs that look alike come from different tables or passages of the source.

Key:
[1] = test system: NCI-H1299 (H1299) carcinoma
Description: Two antitumor compounds were formulated for an i.v. dosing regime prepared in the following vehicle: 10% ethanol, 10% Cremophor and 80% isotonic saline. […] Other compounds were formulated similarly.
The MTDs for the antitumor compounds were calculated from earlier single dose data for mice receiving i.v. administration of these compounds. […] Vehicle control animals were dosed twice intravenously with half the total volume being given separated by one hour. The study was terminated at Day 60.
The results are summarized in Table 1 and include mean days of survival (MDS), number of toxic deaths, number of survivors, number of complete or partial responses, and number with stable disease. The mean days of survival is the number of days after which a neoplasm reached a size of 1.5 g and the animal was euthanized. A complete response is obtained if the tumor is not palpable at the end of the study. A partial response is obtained if the tumor shrinks to a size smaller than its size on Day 1 of the study.
A tumor scoring system was designed to provide a more quantitative ranking of efficacy (therapeutic potential) among the antitumor agents evaluated against the different human solid tumor xenografts. Each mouse in a study was given a score of from 1 to 10 at the end of the study. The scores can be summarized as follows:
The individual score for each mouse was averaged into a mean score for each treatment group. […]
The treatment protocol for the H1299 test was identical to the SK-MES test protocol. […]

[2] = test system: SKMES Human Lung Carcinoma Xenograft; conditions: 40 mg/kg single oral bolus Day 1, 6 mice/group, study end Day 60
Description: Antitumor compounds were formulated for oral administration over a wide dose range in a study to investigate the efficacy of this compound against the SKMES human lung cancer xenograft. The antitumor compounds were prepared in the following vehicle: 5% ethanol, 5% Cremophor and 90% isotonic saline.
Female Nu/Nu mice (6-8 weeks of age; implanted with 1 mm^3 SKMES lung carcinoma fragments in the flank) were sorted into treatment groups of six mice each. SKMES size ranges and group mean SKMES size ranges were 126-448 mg and 238-241 mg, respectively. […] Treatments were administered as a single oral bolus on Day 1, and the study was terminated on Day 60.
The mean days of survival is the number of days after which a SKMES neoplasm reached a size of 2.0 g and the animal was euthanized. A complete response is obtained if the tumor is not palpable at the end of the study. A partial response is obtained if the tumor shrinks to a size smaller than its size on Day 1 of the study. […]

[3] = test system: SKMES human lung cancer xenograft
Description: Female Nu/Nu mice (6-8 weeks of age; implanted with 1 mm^3 SKMES lung carcinoma fragments in the flank) were sorted into treatment groups of six mice each. […] Treatment was administered as a single bolus on Day 1, and the study was terminated on Day 62.
The mean days of survival is the number of days after which a SKMES neoplasm reached a size of 2.0 g and the animal was euthanized. A complete response is obtained if the tumor is not palpable at the end of the study. A partial response is obtained if the tumor shrinks to a size smaller than its size on Day 1 of the study.

[4] = test system: HCT116 human colon carcinoma xenograft; conditions: 18 mg/kg i.v. qd x 5, 10 mice/group, study end Day 60
Text: Six groups consisting of ten mice in each group were made up of female Nu/Nu mice (8-9 weeks of age; implanted with 1 mm^3 HCT116 human […] carcinoma fragments in the flank). Another six groups consisting of ten mice in each group were made up of male Nu/Nu mice (6-7 weeks of age; implanted with 1 mm^3 HCT116 human […] carcinoma fragments in the flank). […] The study was terminated on Day 60.
The results are summarized in Table 19 for the female mice and Table 20 for the male mice. Included are mean days of survival (MDS), number of toxic deaths, number of survivors, number of complete or partial responses, and number with stable disease. The mean days of survival is the number of days after which an […] neoplasm reached a size of 1.5 g and the animal was euthanized. A complete response is obtained if the tumor is not palpable at the end of the study. A partial response is obtained if the tumor shrinks to a size smaller than its size on Day 1 of the study. […]

[5] = i.v. split dose qd x 1 at MTD (Taxol 36 mg/kg, 1393 72.1 mg/kg), 6 mice/group, Day 60
[6] = 40 mg/kg single oral bolus Day 1, 6 mice/group, study end Day 62

## CC(=O)O[C@H]1C(=O)[C@@]2(C)[C@H]([C@H](OC(=O)c3ccccc3)[C@]3(O)C[C@H](OC(=O)[C@H](O)[C@@H](NC(=O)c4ccccc4)c4ccccc4)C(C)=C1C3(C)C)[C@]1(OC(C)=O)CO[C@@H]1C[C@@H]2O [Taxol, paclitaxel, reference compound]
[1]; Taxol 36 mg/kg i.v.
  survival extension compared to vehicle-treated animals: 10%
[1]; i.v. split dose qd x 1 at MTD (Taxol 36 mg/kg, 1393 72.1 mg/kg), 6 mice/group, 1.5 g cut-off, Day 60
  MDS (n): 27.0 ± 4.6 (5) days
[1]; [5]
  Complete Response: 0
  Stable Disease: 0
  Survivors: 1
  Toxic Deaths: 0
[1]; i.v. split dose qd x 1 at MTD (Taxol 36 mg/kg, 1393 72.1 mg/kg), tumor score 1 to 10 per mouse, group mean
  Mean Score: 2.7 ± 1.3
[2]
  % Total Response: 0%
  Complete Responses: 0
  Partial Responses: 0
  Stable Disease: 0
  Survivors: 0
  Toxic Deaths: 0
[2]; days until tumor reached 2.0 g
  MDS (n): 13.2 ± 1.4 (6) days
[3]; [6]
  % Total Response: 0%
  Complete Responses: 0
  Partial Responses: 0
  Stable Disease: 0
  Survivors: 0
  Toxic Deaths: 1
[3]; 40 mg/kg single oral bolus Day 1, 6 mice/group, study end Day 62, days until tumor reached 2.0 g
  MDS (n): 9.2±1.4 (5) days
[3]; SKMES, Taxol orally 40 mg/kg single bolus (Group 10)
  activity: not active
[4]; female mice
  Complete Responses: 4
  Partial Responses: 1
  Stable Disease: 1
  Survivors: 6
  Toxic Deaths: 1
[4]; male mice
  Complete Responses: 1
  Partial Responses: 2
  Stable Disease: 1
  Survivors: 4
  Toxic Deaths: 0
